Like-named read-outs stand apart in the source and are kept apart here.
Key:
NK Falkone corn seeds = experiment: Corn seed germination under cold stress; format: in vivo; details: 15° C.
Procedure: The effect of compounds of Formula (I) on the germination of NK Falkone corn seeds under cold stress was evaluated as follows.
NK Falkone corn seeds were sorted by size using 2 sieves, one excluding very big seeds and the other with round holes of 8 to 9 mm diameter. The seeds retained by the latter sieve were used for the germination test.
The corn seeds were placed in 24 well plates (each plate was considered as one experimental unit or replicate). Germination was initiated by the addition of 250 μl of distilled water containing 0.5% DMSO per well as a mean for compound solubilization. 8 replicates (ie, 8 plates) were used for each treatment characterization. Plates were sealed using seal foil (Polyolefin Art. Nr. 900320) from HJ-BIOANALYTIK. All plates were placed horizontally on trolleys in a climatic chamber at 15° C. or 23° C. in complete darkness. The experiment was laid out in a completely randomized design in climatic chamber with 75% Relative Humidity. Foils were pierced, one hole per well using a syringe after 72 hours for experiments performed at 15° C. and after 24 hours for experiments performed at 23° C.
Germination was followed over time by taking photographs at different time points. Image analysis was performed automatically with a macro which was developed using the Image J software. A dynamic analysis of germination was carried out by fitting a logistic curve. Three parameters were calculated from the logistic curve: the T50; the slope and the plateau. All three parameters have a high agronomical relevance and are key requirements to ensure a good early crop-establishment. The T50, slope and plateau for a selection of compounds are outlined in Table 2 below. All the values are expressed as percentages compared to an untreated control. All the three parameters are calculated considering 8 replicates and the kinetic parameters are separately determined for each germination curve. Data in bold indicate germination enhancing statistically significant differences between treated seeds and untreated control (p<0.05). • T50 corresponds to the time needed for half of the seed population to germinate. Higher negative %-values indicate faster germination. • Slope indicates how synchronous the germination of the seed population is. Positive values indicate steeper curve. The steeper the curve, the better and more uniform the germination is. • Plateau provides information about the final germination rate and it is expressed in percentage.
Positive values indicate a larger number of seeds germinated in a given period.

[1] = Soil stability assay (Stein clay loam soil); format: physicochemical; details: for Soil Stability (t1/2, hours): Stein soil:sand 1:1, 0.3 μg per gram of soil, dark, 20° C.
Text: It is highly desirable that agrochemicals applied to soil in order to deliver a beneficial biological effect can exist in the soil for a prolonged period of time with minimal degradation. However, a biologically active agrochemical compound may undergo chemical transformation in soil, leading to decreased levels of activity and a decrease in a desired biological effect. Simple laboratory degradation studies can be used to evaluate the disappearance due to biotic and abiotic processes of a compound in soil. The time taken for a compound to degrade in soil allows the estimation of their half-life (t1/2), which corresponds to the time in which 50% of the compound under evaluation is degraded in soil. […] Stock standard solutions were prepared by dissolving 1 mg of each test compound (ie, compounds (Ib-1, Ib-19 and AB01) in acetonitrile. The stock standard solutions were stored at 6° C. Working standard solutions were then obtained by a series of dilutions of the stock standard solutions for an external calibration. A treatment solution of 100 μg/mL concentration for each test compound was prepared in acetonitrile:water (6:4)(v:v). Soil samples used for this soil stability assay were collected at the Syngenta Research Centre location in Stein (Switzerland). The soil was classified as clay loam soil. Certain physical properties of the soil are described in Table 4. 2 mm sieved Stein soil was mixed with sand at ratio 1:1 prior to starting the laboratory soil degradation experiment. 10 g of the sand-soil mix (air-dried basis) was weighed into 50 ml Corning® polypropylene centrifuge tubes and soil moisture was adjusted at 45% of the field capacity. Chemical application was performed by applying 30 μl of a 100 μg/mL solution of each test compound to 10 g soil vessel corresponding to a final concentration of 0.3 μg test compound per gram of soil. Three replicates were considered for each test compound. Treated tubes were incubated in the dark at 20° C.±0.5 with 85% relative humidity. For the estimation of half-life, different sampling times of 0, 4, 8, 24, 72, 168 and 336 hours were considered. […] The half-lives were calculated by an exponential regression analysis (single first order kinetic model) plotting the percentage of recovered compound in soil against the time. […] After centrifugation at 3500 rpm for 5 minutes, an aliquot of the supernatant was collected and analyzed via UPLC-MS (Waters Acquity UPLC-MS PDA-Detection: 254 nm- and SQD-Zspray ESI, APCI, ESCi®-; Waters Acquity UPLC Column HSS T3 2.1×30 mm-1.8 μm; Gradient mobile phase with H2O:MeOH (9:1, v:v)+0.1% HCOOH (solvent A) and MeCN+0.1% HCOOH (solvent B); 30% to 100% of solvent B in 1 min, then 100% of solvent B for 0.45 min and then down to 30% solvent B at 1.5 min.; flow rate 0.75 mL·min−1).

[2] = Hydrolytic stability assay; format: physicochemical; details: for half-life: aqueous buffer with acetonitrile co-solvent, 40° C., read-out: Hydrolytic Stability (t1/2, hours) (converted); for loss of test compound (definitive half-life could not be determined): pH7
Procedure: The objective of the hydrolytic stability assay was to determine the chemical stability of the individual test compounds in a strictly controlled and reproducible environment allowing a comparison of their in-vitro stability under aqueous conditions at pH7 and 9. Due to low solubility of these analogues, a percentage of acentonitrile is added to the system to aid solubility (nominally 10-50%). Prior to conducting the individual assays, 1000 ppm stock solutions of all four test compounds were prepared in methanol. The reagents used in the assays were prepared as follows: 20 mM buffer solution: A stock of 20 mM mixed acetate, borate and phosphate buffer was prepared and the pH adjusted to 7 or 9 as required. Test solutions were prepared in LC vials for each test compound in the following manner: Mobile Phase Control: Mobile phase (1 ml)+compound (0.5-40 μl); Hydrolytic Stability: Buffer (1 ml)+compound (0.5-40 μl). The mobile phase and buffer were dispensed into separate glass LC vials, placed into a thermostatted autosampler set at 40° C., and allowed to equilibrate for 30 minutes prior to starting the individual assays. Reactions were initiated by addition of compound and monitored through a series of repeat injections made directly from the vial into an HPLC system at regular time intervals. Initial and subsequent measurements of peak area attributable to the test compound were used to fit exponential half-lives and calculate first-order rate constants. […] Consequently, the percent remaining was recorded at the last assessment time.

SMILES: CC1=CC(O/C=C2/C(=O)O[C@]3(C)CC[C@H]4C(C)(C)CCC[C@]4(C)[C@@H]23)OC1=O (stereo partly shown) [AB01]
- Plateau (% vs control) (NK Falkone corn seeds; rate 0.04 μM): −2.20 % vs control
- Slope (% vs control) (NK Falkone corn seeds; rate 0.04 μM): 6.50 % vs control
- T50 (% vs control) (NK Falkone corn seeds; rate 0.04 μM): −1.80 % vs control
- Plateau (% vs control) (NK Falkone corn seeds; rate 0.2 μM): −2.20 % vs control
- Slope (% vs control) (NK Falkone corn seeds; rate 0.2 μM): 10.00 % vs control
- T50 (% vs control) (NK Falkone corn seeds; rate 0.2 μM): 0.50 % vs control
- Plateau (% vs control) (NK Falkone corn seeds; rate 1 μM): 3.00 % vs control
- Slope (% vs control) (NK Falkone corn seeds; rate 1 μM): 27.50 % vs control
- T50 (% vs control) (NK Falkone corn seeds; rate 1 μM): −2.30 % vs control
- Plateau (% vs control) (NK Falkone corn seeds; rate 5 μM): 1.30 % vs control
- Slope (% vs control) (NK Falkone corn seeds; rate 5 μM): 16.50 % vs control
- T50 (% vs control) (NK Falkone corn seeds; rate 5 μM): −1.90 % vs control
- Soil Stability (t1/2, hours) [1]: 38 h
- half-life ([2]; pH 7 + 25% MeCN): > 17.6 h
- half-life ([2]; pH 9 + 25% MeCN): 3 h
- loss of test compound (definitive half-life could not be determined) [2]: insufficient loss was observed

SMILES: CC1=C[C@H](O/C=C2/C(=O)O[C@@H]3c4ccccc4C[C@H]23)OC1=O [GR-24]
- Plateau (% vs control) (NK Falkone corn seeds; rate 0.08 μM, final germination rate): 2.10 % vs control
- Slope (% vs control) (NK Falkone corn seeds; rate 0.08 μM, synchrony of germination): −8.50 % vs control
- T50 (% vs control) (NK Falkone corn seeds; rate 0.08 μM, time for half of seeds to germinate): −0.10 % vs control
- Plateau (% vs control) (NK Falkone corn seeds; rate 0.4 μM): 0.90 % vs control
- Slope (% vs control) (NK Falkone corn seeds; rate 0.4 μM): 0.20 % vs control
- T50 (% vs control) (NK Falkone corn seeds; rate 0.4 μM): −1.80 % vs control
- Plateau (% vs control) (NK Falkone corn seeds; rate 2 μM): −1.40 % vs control
- Slope (% vs control) (NK Falkone corn seeds; rate 2 μM): −0.80 % vs control
- T50 (% vs control) (NK Falkone corn seeds; rate 2 μM): −0.50 % vs control
- Plateau (% vs control) (NK Falkone corn seeds; rate 10 μM): 1.50 % vs control
- Slope (% vs control) (NK Falkone corn seeds; rate 10 μM): 7.40 % vs control
- T50 (% vs control) (NK Falkone corn seeds; rate 10 μM): −2.40 % vs control

SMILES: CC1=C(C)C(O/C=C2/C(=O)O[C@]3(C)CC[C@H]4C(C)(C)CCC[C@]4(C)[C@@H]23)N(c2ccccc2)C1=O (stereo partly shown) [Ib-1]
- Soil Stability (t1/2, hours) [1]: >720 h
- half-life ([2]; pH 7 + 25% MeCN): > 18.1 h
- half-life ([2]; pH 9 + 25% MeCN): > 17.8 h

SMILES: CC1=C(C)C(O/C=C2/C(=O)O[C@]3(C)CC[C@H]4C(C)(C)CCC[C@]4(C)[C@@H]23)OC1=O (stereo partly shown) [Ib-19]
- Plateau (% vs control) (NK Falkone corn seeds; rate 0.04 μM): 7.10 % vs control
- Slope (% vs control) (NK Falkone corn seeds; rate 0.04 μM): 13.60 % vs control
- T50 (% vs control) (NK Falkone corn seeds; rate 0.04 μM): −1.10 % vs control
- Plateau (% vs control) (NK Falkone corn seeds; rate 0.2 μM): −4.60 % vs control
- Slope (% vs control) (NK Falkone corn seeds; rate 0.2 μM): 11.40 % vs control
- T50 (% vs control) (NK Falkone corn seeds; rate 0.2 μM): −3.20 % vs control
- Plateau (% vs control) (NK Falkone corn seeds; rate 1 μM): 3.00 % vs control
- Slope (% vs control) (NK Falkone corn seeds; rate 1 μM): 7.60 % vs control
- T50 (% vs control) (NK Falkone corn seeds; rate 1 μM): 0.20 % vs control
- Plateau (% vs control) (NK Falkone corn seeds; rate 5 μM): 8.30 % vs control
- Slope (% vs control) (NK Falkone corn seeds; rate 5 μM): 24.20 % vs control
- T50 (% vs control) (NK Falkone corn seeds; rate 5 μM): −2.80 % vs control
- soil stability compared to prior art compound AB01 ([1]; Stein soil): superior soil stability
- Soil Stability (t1/2, hours) [1]: 280 h
- half-life ([2]; pH 7 + 25% MeCN): > 17.6 h
- half-life ([2]; pH 9 + 25% MeCN): 19.4 h
- loss of test compound (definitive half-life could not be determined) [2]: insufficient loss was observed
- hydrolytic stability compared to the prior art compound ([2]; pH9): superior hydrolytic stability
